Data reported in patent US11814376B2, “Hepatitis b core protein modulators” (Assembly Biosciences, Inc., priority 2015, dated 2023).

Tests used:
[1] = test system: HBV viral load in AD38 cells; assay: Viral load production in AD38 cells, quantitative PCR of the core sequence in supernatant; type: cell-based; details: 10 μM compound, 6 days at 37° C., supernatant qPCR, relative to DMSO control; for activity at 10 µM: Hepatitis B virus, 144 h, read-out: AD38 Viral Load (%) (VL with cmpd/VL in DMSO control) at 10 μM
Description: (§1) Example 2: Assay Measuring Activity of Compounds on Viral Production in and on Viability of AD38 Cells
(§2) AD38 cells were then re-suspended with 10 mL of Treatment Medium and counted. Wells of a collagen coated 96-well NUNC microtiter plate were seeded at 50,000/well in 180 μL of Treatment Medium, and 20 μL of in treatment media with either 10% DMSO (Control) or a 10× solution of compound in 10% DMSO was added. Plates were incubated for 6 days at 37° C.
Viral load production was assayed by quantitative PCR of the core sequence. […] The PCR mixture was incubated at 45° C. for 5 minutes, then 95° C. for 10 min, followed by 40 cycles of 10 seconds at 95° C. and 20 seconds at 60° C. Viral load was quantitated against known standards by using ViiA™ 7 Software. Viral load in the supernatant from wells with treated cells were compared against viral load in supernatant from DMSO control wells (>3 per plate).

AD38 cells = assay: Viability of AD38 cells (Promega CellTiter-Glo); type: cell-based; details: 10 μM compound, 6 days, CellTiter-Glo luminescence normalized to DMSO control (100%)
Description: as §1, §2
At the end of compound treatment period cell viability was assessed using a Promega CellTiter-Glo protocol. All supernatant was removed the previously treated 96-well microtiter plate, and 50 μL Tetracycline-free treatment medium (DMEM/F12 (1:1), 1× Pen/step (cat #: 30-002-CL, Mediatech, Inc), with 2% FBS, Tet-system approved (cat #: 631106, Clontech), and 1% DMSO was added back to each well. Another 50 μL of CellTiter-Glo reagent solution (Promega, G7573) was then added at room temperature and the contents mixed for 2 minutes on an orbital shaker to induce cell lysis. This was followed by incubation at room temperature for 10 minutes to stabilize the luminescent signal. The luminescence was recorded for 0.2 seconds per well on a Tecan multimode plate reader (Infinite M1000 pro). The luminescent signal from each well was normalized against that of untreated (DMSO) control wells. All results were reported percent viability (with controls being 100%).

Structure (SMILES) | activity at 10 µM [1] | AD38 Viability Normalized Result (cmpd/DMSO %) at 10 μM (AD38 cells) | AD38 Viral Load (%) (VL with cmpd/VL in DMSO control) at 10 μM [1]
O=C(NCc1cnc(-c2ccc(OCCCN3CCOCC3)cc2)s1)c1ccc2c(c1)NC(=O)c1ccccc1S2(=O)=O [compound 1993] | 0.5% | 96% | 
Cc1c(C(=O)NCc2cnc(-c3ccc(OCCCN(C)C)cc3)s2)ccc2c1NC(=O)c1ccccc1O2 [C44-01] | 2.6% | 97% | 
CN(C)c1ncc(-c2ncc(CNC(=O)c3ccc4c(c3)NC(=O)c3ccccc3O4)s2)cn1 [compound 1711] | 6.5% | 96% | 
Cc1ncc(CNC(=O)c2ccc3c(c2)NC(=O)c2ccccc2O3)s1 [compound 1557] | 0.6% | 98% | 
Cc1ncc(CNC(=O)c2ccc3c(c2)NC(=O)c2ccccc2S3(=O)=O)s1 [compound 1528] | 0.8% | 76% | 
N#Cc1ccc(-c2ncc(CNC(=O)c3ccc4c(c3)NC(=O)c3ccccc3O4)s2)c(F)c1 [compound 1826] | 11.8% | 91% | 
CC(C)(NC(=O)c1ccc2c(c1)NC(=O)c1ccccc1S2)c1cncs1 [compound 1549] | 106% | 105% | 
N#Cc1ccc(-c2ncc(CNC(=O)c3ccc4c(c3)NC(=O)c3ccccc3S4(=O)=O)s2)cc1 [1654-A, N-((2-(4-cyanophenyl)thiazol-5-yl)methyl)-11-oxo-10, 11-dihydrodibenzo [b, f] [1, 4] thiazepine-8-carboxamide 5,5-dioxide] | 2.6% | 68% | 
Cc1nc(C)c(CNC(=O)c2ccc3c(c2)NC(=O)c2ccccc2O3)s1 [compound 1769] | 43.3% | 101% | 
CN(C)CCCOc1ncc(CNC(=O)c2ccc3c(c2)NC(=O)c2ccccc2S3(=O)=O)s1 [compound 1680, N-((2-(3-(dimethylamino)propoxy)thiazol-5-yl)methyl)-11-oxo-10, 11-dihydrodibenzo [b, f] [1, 4] thiazepine-8-carboxamide 5,5-dioxide] | 15% | 94% | 
O=C1Nc2c(ccc(C(=O)NCc3cnc(-n4cccn4)s3)c2Cl)S(=O)(=O)c2ccccc21 [C51-02] | 0.2% | 98% | 
CCN(CC)CC(O)COc1ccc(-c2ncc(CNC(=O)c3ccc4c(c3)NC(=O)c3ccccc3S4(=O)=O)s2)cc1 (stereo not shown) [compound 11086] | 4.7% | 88% | 
CC(=O)NCCCCc1ccc(-c2ncc(CNC(=O)c3ccc4c(c3)NC(=O)c3ccccc3S4(=O)=O)s2)cc1 [compound 11057] | 1% | 101% | 
O=C(NCc1cnc(-n2cccn2)s1)c1ccc2c(c1)NC(=O)c1ccccc1S2(=O)=O [compound 1960] | 0.8% | 106% | 
CN(C)C1CN(Cc2ccc(-c3ncc(CNC(=O)c4ccc5c(c4)NC(=O)c4ccccc4S5(=O)=O)s3)cc2)C1 [compound 11158] | 6.4% | 100% | 
O=C(NCc1cnc(-c2ccc(F)cc2)s1)c1ccc2c(c1)NC(=O)c1ccccc1O2 [compound 1561] | 10.3% | 96% | 
O=C(NCc1cnc(-c2ccc(SCCCO)cc2)s1)c1ccc2c(c1)NC(=O)c1ccccc1S2(=O)=O [11063-A, N-((2-(4-((3-hydroxypropyl)thio)phenyl)thiazol-5-yl)methyl)-11-oxo-10, 11-dihydrodibenzo [b, f] [1, 4] thiazepine-8-carboxamide 5,5-dioxide] | 0.4% | 104% | 
Cl.O=C(NCc1cnc(-c2ccc(OC[C@@H]3CCCN3)cc2)s1)c1ccc2c(c1)NC(=O)c1ccccc1S2(=O)=O [compound 11029, (S)-11-oxo-N-((2-(4-(pyrrolidin-2-ylmethoxy)phenyl)thiazol-5-yl)methyl)-10, 11-dihydrodibenzo [b, f] [1, 4] thiazepine-8-carboxamide 5,5-dioxide hydrochloride] | 5.3% | 105% | 

Structure (SMILES) | activity at 10 µM [1] | AD38 Viability Normalized Result (cmpd/DMSO %) at 10 μM (AD38 cells) | AD38 Viral Load (%) (VL with cmpd/VL in DMSO control) at 10 μM [1]
Cn1ccc(-c2ncc(CNC(=O)c3ccc4c(c3)NC(=O)c3ccccc3S4(=O)=O)s2)n1 [compound 11046] | 0.9% | 100% | 
COC(=O)[C@@H]1CCCN1CCCOc1ccc(-c2ncc(CNC(=O)c3ccc4c(c3)NC(=O)c3ccccc3S4(=O)=O)s2)cc1 [11106-A] | 3.6% | 90% | 
CCN1c2ccc(C(=O)NCc3cnc(-c4ccc(O)cc4)s3)cc2NC(=O)c2ccccc21 [compound 1751] | 2.8% | 18% | 
O=C(NCc1cnc(-c2cscn2)s1)c1ccc2c(c1)NC(=O)c1ccccc1S2(=O)=O [compound 11049] | 0.8% | 89% | 
O=C(O)c1ccc(-c2ncc(CNC(=O)c3ccc4c(c3)NC(=O)c3ccccc3S4(=O)=O)s2)cc1 [compound 1585, 4-(5-((5,5-dioxido-11-oxo-10, 11-dihydrodibenzo [b, f] [1, 4]thiazepine-8-carboxamido)methyl)thiazol-2-yl) benzoic acid] | 64.1% | 96% | 
O=C(NCc1cnc(-c2ccc3cnccc3c2)s1)c1ccc2c(c1)NC(=O)c1ccccc1S2(=O)=O [compound 1820] | 3.2% | 105% | 
O=C(NCc1cnc(N2C[C@H](O)CC[C@@H](O)C2)s1)c1ccc2c(c1)NC(=O)c1ccccc1S2(=O)=O [compound 1972] | 23.5% | 100% | 
Nc1ncc(-c2ncc(CNC(=O)c3ccc4c(c3)NC(=O)c3ccccc3S4(=O)=O)s2)cn1 [compound 1673] | 3.2% | 105% | 
CC(C)N(C)CCCOc1ccc(-c2ncc(CNC(=O)c3ccc4c(c3)NC(=O)c3ccccc3S4(=O)=O)s2)cc1 [compound 11091] | 1.3% | 89% | 
Cl.NCc1ccc(-c2ncc(CNC(=O)c3ccc4c(c3)NC(=O)c3ccccc3S4(=O)=O)s2)cc1 [compound 1654, N-((2-(4-(aminomethyl)phenyl)thiazol-5-yl)methyl)-11-oxo-10, 11-dihydrodibenzo [b, f] [1, 4] thiazepine-8-carboxamide 5,5-dioxide hydrochloride] | 0.5% | 94% | 
Cl.NCc1ccccc1-c1ncc(CNC(=O)c2ccc3c(c2)NC(=O)c2ccccc2S3(=O)=O)s1 [compound 1841, N-((2-(2-(aminomethyl)phenyl)thiazol-5-yl)methyl)-11-oxo-10, 11-dihydrodibenzo [b, f] [1, 4] thiazepine-8-carboxamide 5,5-dioxide hydrochloride] | 9.1% | 104% | 
O=C(NCc1cnc(-c2ncco2)s1)c1ccc2c(c1)NC(=O)c1ccccc1S2(=O)=O [compound 1958] | 1.5% | 91% | 
O=C(NCc1cnc(C(F)(F)F)s1)c1cc2c(cc1Cl)S(=O)(=O)c1ccccc1C(=O)N2 [compound 1934] | 40% | 69% | 
O=C(NCc1cnc(-c2ccc(O)cc2F)s1)c1ccc2c(c1)NC(=O)c1ccccc1S2(=O)=O [compound 1670] | 0.9% | 102% | 
CC(C)(C)OC(=O)NCCCSc1ccc(-c2ncc(CNC(=O)c3ccc4c(c3)NC(=O)c3ccccc3S4(=O)=O)s2)cc1 [11007-A, tert-butyl (3-((4-(5-((5,5-dioxido-11-oxo-10, 11-dihydrodibenzo [b, f] [1, 4]thiazepine-8-carboxamido)methyl)thiazol-2-yl)phenyl)thio)propyl) carbamate] |  | 75% | 0.9%
O=C(NCc1cnc(C(F)(F)F)s1)c1cc2c(cc1C(F)(F)F)S(=O)(=O)c1ccccc1C(=O)N2 [compound 1936] | 13.5% | 94% | 
N#Cc1ccc(-c2ncc(CNC(=O)c3ccc4c(c3)NC(=O)c3cccc(F)c3S4(=O)=O)s2)cc1 [compound 1904] | 0.5% | 89% | 
